Data from patent US20230053540A1, “TREATMENT OF LIVER INJURY” (Massachusetts Institute of Technology, priority 2019, published 2023).

Test system: hepatocytes
Test: Seq-Well scRNA-Seq of hepatocytes after APAP overdose (signature scores, DEG vs untreated)
Assay type: in vivo, mouse
Conditions: cluster A48 (APAP, 48 h)

In the case of `CC(=O)Nc1ccc(O)cc1` [APAP, acetaminophen], the “avg_logFC Cyp4a10” value is reported as 1.157, the “avg_logFC Cyp4a14” value is reported as 1.488 and the “avg_logFC Dbp” value is reported as 0.2929. For the same compound, the “avg_logFC Dcxr” value was 0.3518, the “avg_logFC Ddb1” value was 0.3373 and the “avg_logFC Decr1” value was 0.5941. For the same compound, the “avg_logFC Decr2” value was 0.4308, the “avg_logFC Dhrs4” value was 0.342 and the “avg_logFC Ech1” value was 0.5251. For the same compound, the “avg_logFC Echs1” value was 0.4926, the “avg_logFC Eef1d” value was 0.2745 and the “avg_logFC Ephx2” value was 0.4864. The “avg_logFC Esrra” value was 0.2518, the “avg_logFC Etfb” value was 0.3542 and the “avg_logFC Etnppl” value was 0.6045. The “avg_logFC F2” value was 0.3767, the “avg_logFC F10” value was 0.3879 and the “avg_logFC F12” value was 0.385. The “avg_logFC Fah” value was 0.3039, the “avg_logFC Fam195a” value was 0.3544 and the “avg_logFC Fcgrt” value was 0.4314. For the same compound, the “avg_logFC Fth1” value was 0.4342, the “avg_logFC G0s2” value was 0.4232 and the “avg_logFC Gabarap” value was 0.4376. For the same compound, the “avg_logFC Galk1” value was 0.2686, the “avg_logFC Gcdh” value was 0.306 and the “avg_logFC Gchfr” value was 0.3676. For the same compound, the “avg_logFC Ggnbp2” value was 0.2821, the “avg_logFC Glrx5” value was 0.3308 and the “avg_logFC Gltscr2” value was 0.3759. For the same compound, the “avg_logFC Gm6484” value was 0.3759, the “avg_logFC Gsta2” value was 0.2734 and the “avg_logFC Gsto1” value was 0.3392. The “avg_logFC Gstt2” value was 0.3234, the “avg_logFC Gstt3” value was 0.3834 and the “avg_logFC Gys2” value was 0.4182. For the same compound, the “avg_logFC Hdac11” value was 0.3963, the “avg_logFC Herpud1” value was 0.5965 and the “avg_logFC Hmgcl” value was 0.619. For the same compound, the “avg_logFC Hmgcs2” value was 0.8196, the “avg_logFC Hrg” value was 0.436 and the “avg_logFC Hsd17b10” value was 0.4452. For the same compound, the “avg_logFC Hsd17b13” value was 0.6427, the “avg_logFC Ifnar2” value was 0.2833 and the “avg_logFC Khk” value was 0.5338. The “avg_logFC Lamp1” value was 0.3377, the “avg_logFC Lcat” value was 0.4733 and the “avg_logFC Lims2” value was 0.3931. For the same compound, the “avg_logFC Lipa” value was 0.3277, the “avg_logFC Mat1a” value was 0.6585 and the “avg_logFC Mfsd2a” value was 0.5827. The “avg_logFC Mgll” value was 0.3192, the “avg_logFC Mia3” value was 0.3374 and the “avg_logFC Mlycd” value was 0.4637. The “avg_logFC Mrpl43” value was 0.2692, the “avg_logFC Ndrg2” value was 0.3498 and the “avg_logFC Ndufb2” value was 0.407. The “avg_logFC Ndufb10” value was 0.3471, the “avg_logFC Ndufs7” value was 0.2882 and the “avg_logFC Ninj1” value was 0.3542. For the same compound, the “avg_logFC Nr1i3” value was 0.5739, the “avg_logFC Oaf” value was 0.5619 and the “avg_logFC Pabpc1” value was 0.5116. For the same compound, the “avg_logFC Park7” value was 0.403, the “avg_logFC Pbld1” value was 0.3989 and the “avg_logFC Pbld2” value was 0.3619. The “avg_logFC Pigr” value was 0.4224, the “avg_logFC Pitpnb” value was 0.2726 and the “avg_logFC Plin5” value was 0.3264. For the same compound, the “avg_logFC Pnpla2” value was 0.3457, the “avg_logFC Ppara” value was 0.3442 and the “avg_logFC Prodh2” value was 0.5179. The “avg_logFC Rabac1” value was 0.3343, the “avg_logFC Rbp4” value was 0.5139 and the “avg_logFC Rdh7” value was 0.5575. For the same compound, the “avg_logFC Reep6” value was 0.5902, the “avg_logFC Retsat” value was 0.8734 and the “avg_logFC Rgs16” value was 0.3803. The “avg_logFC Rpl4” value was 0.3744, the “avg_logFC Rpl38” value was 0.3455 and the “avg_logFC Scand1” value was 0.2581. For the same compound, the “avg_logFC Sco2” value was 0.317, the “avg_logFC Sdhc” value was 0.4334 and the “avg_logFC Sdhd” value was 0.4849. For the same compound, the “avg_logFC Sec14l2” value was 0.389, the “avg_logFC Serpina1d” value was 0.3563 and the “avg_logFC Serpinf1” value was 0.3954. For the same compound, the “avg_logFC Serping1” value was 0.4435, the “avg_logFC Sh3glb1” value was 0.3259 and the “avg_logFC Shmt1” value was 0.3827. For the same compound, the “avg_logFC Slc10a1” value was 0.4562, the “avg_logFC Slc25a10” value was 0.4539 and the “avg_logFC Slc25a20” value was 0.4208. For the same compound, the “avg_logFC Slc25a47” value was 0.5249, the “avg_logFC Slc27a2” value was 0.3146 and the “avg_logFC Slc27a5” value was 0.41. For the same compound, the “avg_logFC Slc37a4” value was 0.4211, the “avg_logFC Slc40a1” value was 0.332 and the “avg_logFC Slco1a4” value was 0.5466. For the same compound, the “avg_logFC Smlr1” value was 0.3065 and the “avg_logFC Snord118” value was 0.5286.
